These results are taken from patent US7396857B2, “Therapeutic combinations for the treatment or prevention of depression” (Wyeth, priority 2005, dated 2008).

Structures are written as SMILES.

Test [1] relates to Male Swiss Webster mice. The test can be described thus: Tail suspension test. The class given is in vivo. An excerpt: Compound 1, (7-(2,6-dichlorophenyl)-5-fluoro-2,3-dihydrobenzofuran-2-yl)methanamine, was used to exemplify the effectiveness of compounds of the present invention in the tail suspension test. While not a direct model of depression, the tail suspension test is an assay that can evaluate antidepressant-like effects of drugs. Clinically effective drugs such as Prozac (fluoxetine) are effective in this assay. Specifically, they decrease the amount of time the mice spend immobile after being hung upside down by their tails during the test. It is impossible to determine if a mouse is indeed depressed. However, the fact that clinically effective antidepressants reduce immobility lends predictive validity to the model.
Male Swiss Webster mice (Charles River) weighing 20-35 g were used throughout this study. They were housed in groups of five per cage in an AALAC-accredited facility that was maintained on a 12-h light dark cycle (lights on at 0600 h) and had free access to food and water. Experimental groups consisted of 12 mice, randomly assigned to treatment groups. All experiments were performed between 9:00 AM and noon in accordance to the Guide for the Care and Use of Laboratory Animals as adopted and promulgated by the National Institutes of Health (Pub. 85-23, 1985).
Solutions of Compound 1 and paroxetine were freshly prepared. Compound 1 was dissolved in saline and paroxetine was dissolved in distilled water. All drugs were injected i.p. at a volume of 10 ml/kg body weight. Combination treatments were cotreated, 30 minutes prior to the test.
The procedure followed in this study was a variant of the one originally described by Steru et al. (1985). […] The time spent immobile during a 6-minute test session was automatically recorded. […] Data collected were expressed as a mean of immobility time and statistical analysis was performed using a one-way ANOVA with least significant difference (LSD) post-hoc test.

The test system of test [2] is Male Swiss Webster mice. The following applies: general statement on clinically effective drugs; cited from earlier work.

Consider `NCC1Cc2cc(F)cc(-c3c(Cl)cccc3Cl)c2O1` (stereo not shown) [Compound 1, (7-(2,6-dichlorophenyl)-5-fluoro-2,3-dihydrobenzofuran-2-yl)methanamine], for which the “produced antidepressant-like effects alone” value in the test with Male Swiss Webster mice [1] (Compound 1 0.1 mg/kg i.p. alone, 30 minutes prior to test, 6-minute session) is listed as “Neither”.
Take `CNCCC(Oc1ccc(C(F)(F)F)cc1)c1ccccc1` (stereo not shown) [Prozac, N-methyl-3-(p-trifluoromethylphenoxy)-3-phenylpropylamine]: in the test with Male Swiss Webster mice [2], the “effectiveness in the tail suspension assay (decrease of time spent immobile)” value is given as “effective”.
Take `Fc1ccc([C@@H]2CCNC[C@H]2COc2ccc3c(c2)OCO3)cc1` [paroxetine, trans-(−)-3-[(1,3-benzodioxol-5-yloxy)methyl]-4-(4-fluo-rophenyl)piperidine]: the “decrease in immobility time” value in the test on Male Swiss Webster mice [1] (paroxetine 10 mg/kg i.p. dosed alone) was 5%; in the test with Male Swiss Webster mice [1] (paroxetine 30 mg/kg i.p. dosed alone), 4%.
